Our source for the activity values is patent US10092537B2, “Use for PAI-1 inhibitor” (RENASCIENCE CO., LTD., priority 2013, dated 2018).

Where a name gives a salt, the structure may show the parent alone.

This experiment deals with human PAI-1 (Homo sapiens, UniProt P05121). Kind of experiment: Measurement of PAI-1 inhibitory activity of compound group 1 (t-PA, Spectrozyme t-PA chromogenic substrate). The settings on record: read-out: PAI-1 activity %.
Sequence of human PAI-1 (P05121 24-402): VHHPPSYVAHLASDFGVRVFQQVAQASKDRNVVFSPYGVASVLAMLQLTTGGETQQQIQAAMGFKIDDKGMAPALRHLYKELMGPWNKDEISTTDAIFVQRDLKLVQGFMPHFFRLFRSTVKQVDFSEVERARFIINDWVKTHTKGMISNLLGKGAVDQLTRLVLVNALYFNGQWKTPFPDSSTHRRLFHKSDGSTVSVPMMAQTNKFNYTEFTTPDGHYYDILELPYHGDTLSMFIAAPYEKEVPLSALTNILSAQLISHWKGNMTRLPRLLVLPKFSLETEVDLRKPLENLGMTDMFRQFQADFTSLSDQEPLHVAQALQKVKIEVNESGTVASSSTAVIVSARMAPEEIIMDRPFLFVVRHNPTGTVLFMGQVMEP
In the case of `O=C(CNC(c1ccccc1)c1ccccc1)Nc1ccc(Cl)cc1C(=O)O` [Example 73, 5-chloro-2-{[N-(diphenylmethyl)glycyl]amino}benzoic acid], the activity at 2.5 µM worked out at 82.2% and the activity at 10 µM came out at 31.2%.
The like results for `Cc1sc(NC(=O)c2ccc(C3CCCCC3)cc2)c(C(=O)O)c1-c1ccccc1` [Example 74, 2-{[(4-cyclohexylphenyl)carbonyl]amino}-5-methyl-4-phenylthiophene-3-carboxylic acid] were, in that order, 8.6% and 0.2%.
Consider `O=C(O)c1cc(Cl)ccc1NC(=O)N1CCN(C(c2ccccc2)c2ccccc2)CC1` [Example 75, 5-chloro-2-({[4-(diphenylmethyl)piperazin-1-yl]carbonyl}amino)benzoic acid hydrochloride], for which the activity at 2.5 µM was 86.4% and the activity at 10 µM turned out to be 4.7%.
On the same counts, the results for `O=C(COC(c1ccccc1)c1ccccc1)Nc1ccc(Cl)cc1C(=O)O` [Example 76, 5-chloro-2-{[(diphenylmethoxy)acetyl]amino}benzoic acid] are 92.9% and 30.6%.
On to `O=C(CN1CCN(C(c2ccccc2)c2ccccc2)CC1)Nc1ccc(Cl)cc1C(=O)O` [Example 77, 5-chloro-2-({[4-(diphenylmethyl)piperazin-1-yl]acetyl}amino)benzoic acid], for which the activity at 2.5 µM came to 89.6% and the activity at 10 µM was 19.3%.
The like results for `O=C(/C=C/c1ccc(-c2ccccc2)cc1)Nc1ccc(Cl)cc1C(=O)O` [Example 78, 2-{[(2E)-3-(biphenyl-4-yl)prop-2-enoyl]amino}-5-chlorobenzoic acid] were, in that order, 25.3% and 0.3%.
On the same counts, the results for `O=C(Nc1ccc(Cl)cc1C(=O)O)c1cccc(C2=CCCCC2)c1` [Example 79, 5-chloro-2-({[3-(cyclohex-1-en-1-yl)phenyl]carbonyl}amino)benzoic acid] are 44.5% and 1.6%.
On the same counts, the results for `O=C(Nc1ccc(Cl)cc1C(=O)O)c1cccc(C2CCCCC2)c1` [Example 80, 5-chloro-2-{[(3-cyclohexylphenyl)carbonyl]amino}benzoic acid] are 45.5% and 0%.
Consider `O=C(Nc1ccc(C2=CCCCC2)cc1C(=O)O)c1ccc(C2CCCCC2)cc1` [Example 81, 5-(cyclohex-1-en-1-yl)-2-{[(4-cyclohexylphenyl)carbonyl]amino}benzoic acid], for which the activity at 2.5 µM is 1% and the activity at 10 µM was 0%.
The like results for `O=C(Nc1ccc(C2CCCCC2)cc1C(=O)O)c1ccc(C2CCCCC2)cc1` [Example 82, 5-cyclohexyl-2-{[(4-cyclohexylphenyl)carbonyl]amino}benzoic acid] were, in that order, 1.7% and 1.4%.
As for `O=C(Nc1ccc(Cl)cc1C(=O)O)c1ccc(N2CCCC2)cc1` [Example 83, 5-chloro-2-({[4-(pyrrolidin-1-yl)phenyl]carbonyl}amino)benzoic acid hydrochloride], the activity at 2.5 µM is 99.1% and the activity at 10 µM turned out to be 26.6%.
Consider `O=C(Nc1ccc(Cl)cc1C(=O)O)C1=CC2(CCCCC2)CCC1` [Example 84, 5-chloro-2-[(spiro[5.5]undec-1-en-2-ylcarbonyl)amino]benzoic acid], for which the activity at 2.5 µM was found to be 97% and the activity at 10 µM turned out to be 5.5%.
The like results for `O=C(O)c1cc(Cl)ccc1NC(=O)C1CCCC2(CCCCC2)C1` (stereo not shown) [Example 85, 5-chloro-2-[(spiro[5.5]undec-2-ylcarbonyl)amino]benzoic acid] were, in that order, 97.5% and 11%.
The like results for `Cc1ccc(C23CC4CC(CC(C(=O)Nc5ccc(Cl)cc5C(=O)O)(C4)C2)C3)cc1` [Example 86, 5-chloro-2-({[3-(4-methylphenyl)adamantan-1-yl]carbonyl}amino)benzoic acid] were, in that order, 63.5% and 1.4%.
On the same counts, the results for `O=C(Nc1ccc(Cl)cc1C(=O)O)c1cccc(C#CC2CCCCC2)c1` [Example 87, 5-chloro-2-({[3-(cyclohexylethynyl)phenyl]carbonyl}amino)benzoic acid] are 20.5% and 1.2%.
As to `O=C(Nc1ccc(Cl)cc1C(=O)O)c1ccc(C#CC2CCCCC2)cc1` [Example 88, 5-chloro-2-({[4-(cyclohexylethynyl)phenyl]carbonyl}amino)benzoic acid], the activity at 2.5 µM was found to be 35.5% and the activity at 10 µM stood at 0.8%.
With `O=C(/C=C/c1cccc(-c2ccccc2)c1)Nc1ccc(Cl)cc1C(=O)O` [Example 89, 2-{[(2E)-3-(biphenyl-3-yl)prop-2-enoyl]amino}-5-chlorobenzoic acid], the activity at 2.5 µM amounted to 60.7% and the activity at 10 µM was found to be 0.1%.
On the same counts, the results for `O=C(/C=C/c1cccc(C2=CCCCC2)c1)Nc1ccc(Cl)cc1C(=O)O` [Example 90, 5-chloro-2-({(2E)-3-[3-(cyclohex-1-en-1-yl)phenyl]prop-2-enoyl}amino)benzoic acid] are 65.3% and 0.1%.
On the same counts, the results for `O=C(/C=C(/Cl)C1CCCCC1)Nc1ccc(Cl)cc1C(=O)O` [Example 91, 5-chloro-2-{[(2E)-3-chloro-3-cyclohexylprop-2-enoyl]amino}benzoic acid] are 96.9% and 16.7%.
On the same counts, the results for `O=C(Nc1ccc(C#CC2CCCCC2)cc1C(=O)O)c1ccc(C2CCCCC2)cc1` [Example 92, 5-(cyclohexylethynyl)-2-{[(4-cyclohexylphenyl)carbonyl]amino}benzoic acid] are 0% and 0.4%.
`O=C(Nc1ccc(CCC2CCCCC2)cc1C(=O)O)c1ccc(C2CCCCC2)cc1` [Example 93, 5-(2-cyclohexylethyl)-2-{[(4-cyclohexylphenyl)carbonyl]amino}benzoic acid]: the activity at 2.5 µM was determined as 0% and the activity at 10 µM came out at 0%.
`O=C(C#Cc1ccc(C23CC4CC(CC(C4)C2)C3)cc1)Nc1ccc(Cl)cc1C(=O)O` [Example 94, 2-({3-[4-(adamantan-1-yl)phenyl]prop-2-ynoyl}amino)-5-chlorobenzoic acid]: the activity at 2.5 µM stood at 3.5% and the activity at 10 µM is 7.4%.
The like results for `C#Cc1ccc(NC(=O)c2ccc(C3CCCCC3)cc2)c(C(=O)O)c1` [Example 95, 2-{[(4-cyclohexylphenyl)carbonyl]amino}-5-ethynylbenzoic acid] were, in that order, 80.5% and 0.3%.
On the same counts, the results for `O=C(Nc1ccc(Cl)cc1C(=O)O)c1ccc(CC23CC4CC(CC(C4)C2)C3)cc1` [Example 96, 2-({[4-(adamantan-1-ylmethyl)phenyl]carbonyl}amino)-5-chlorobenzoic acid] are 23.9% and 5%.
On the same counts, the results for `O=C(Nc1ccc(Cl)cc1C(=O)O)c1ccc(C(O)C23CC4CC(CC(C4)C2)C3)cc1` (stereo not shown) [Example 97, 2-[({4-[adamantan-1-yl(hydroxy)methyl]phenyl}carbonyl)amino]-5-chlorobenzoic acid] are 89.9% and 0.7%.
Consider `CC1(c2ccc(C(=O)Nc3ccc(Cl)cc3C(=O)O)cc2)CCCCC1` [Example 98, 5-chloro-2-({[4-(1-methylcyclohexyl)phenyl]carbonyl}amino)benzoic acid], for which the activity at 2.5 µM was determined as 41.5% and the activity at 10 µM stood at 0.1%.
On the same counts, the results for `O=C(Nc1ccc(Cl)cc1C(=O)O)c1cccc(OCc2ccc3ccccc3n2)c1` [Example 99, sodium 5-chloro-2-({[3-(quinolin-2-ylmethoxy)phenyl]carbonyl}amino)benzoate] are 87.8% and 0.3%.
On the same counts, the results for `O=C(Nc1ccc(Cl)cc1C(=O)O)c1ccc(OCc2ccc3ccccc3n2)cc1` [Example 100, sodium 5-chloro-2-({[4-(quinolin-2-ylmethoxy)phenyl]carbonyl}amino)benzoate] are 92.1% and 0.7%.
On the same counts, the results for `O=C(/C=C/c1cccc(-c2cccc3cccnc23)c1)Nc1ccc(Cl)cc1C(=O)O` [Example 101, sodium 5-chloro-2-({(2E)-3-[3-(quinolin-8-yl)phenyl]prop-2-enoyl}amino)benzoate] are 24.7% and 0.2%.
Consider `O=C(Nc1ccc(Cl)cc1-c1nnn[nH]1)c1cccc(-c2cccc3cccnc23)c1` [Example 102, N-[4-chloro-2-(1H-tetrazol-5-yl)phenyl]-3-(quinolin-8-yl)benzamide], for which the activity at 2.5 µM worked out at 91.3% and the activity at 10 µM was 1.5%.
On the same counts, the results for `O=C(/C=C/c1cccc(-c2cccnc2)c1)Nc1ccc(Cl)cc1C(=O)O` [Example 103, sodium 5-chloro-2-({(2E)-3-[3-(pyridin-3-yl)phenyl]prop-2-enoyl}amino)benzoate] are 92.3% and 34.2%.
`O=C(Nc1ccc(Cl)cc1C(=O)O)c1ccc(-c2ccc(F)cc2)s1` [Example 104, 5-chloro-2-({[5-(4-fluorophenyl)thiophen-2-yl]carbonyl}amino)benzoic acid]: the activity at 2.5 µM was found to be 84.8% and the activity at 10 µM amounted to 0.9%.
The like results for `O=C(Nc1ccc(Cl)cc1C(=O)O)c1ccc(-c2ccccc2)o1` [Example 105, 5-chloro-2-{[(5-phenylfuran-2-yl)carbonyl]amino}benzoic acid] were, in that order, 89.9% and 23.5%.
On the same counts, the results for `O=C(Nc1ccc(C23CC4CC(CC(C4)C2)C3)cc1)C(=O)Nc1ccc(Cl)cc1C(=O)O` [Example 106, sodium 2-[({[4-(adamantan-1-yl)phenyl]amino}(oxo)acetyl)amino]-5-chlorobenzoate] are 88.4% and 26.3%.
On the same counts, the results for `O=C(O)c1cc(Cl)ccc1NC(=O)c1cc(-c2ccccc2)nc2ccccc12` [Example 107, sodium 5-chloro-2-{[(2-phenylquinolin-4-yl)carbonyl]amino}benzoate] are 100% and 6.7%.
